Like-named read-outs stand apart in the source and are kept apart here.
Assays:
[1] = target: T1, glucose-6-phosphate-dehydrogenase (Saccharomyces cerevisiae, UniProt P11412); assay: Inhibition of the glucose-6-phosphate-dehydrogenase; type: biochemical; settings: 366 nm
T1 construct: purchased Boehringer Mannheim
T1 sequence (P11412 1-505): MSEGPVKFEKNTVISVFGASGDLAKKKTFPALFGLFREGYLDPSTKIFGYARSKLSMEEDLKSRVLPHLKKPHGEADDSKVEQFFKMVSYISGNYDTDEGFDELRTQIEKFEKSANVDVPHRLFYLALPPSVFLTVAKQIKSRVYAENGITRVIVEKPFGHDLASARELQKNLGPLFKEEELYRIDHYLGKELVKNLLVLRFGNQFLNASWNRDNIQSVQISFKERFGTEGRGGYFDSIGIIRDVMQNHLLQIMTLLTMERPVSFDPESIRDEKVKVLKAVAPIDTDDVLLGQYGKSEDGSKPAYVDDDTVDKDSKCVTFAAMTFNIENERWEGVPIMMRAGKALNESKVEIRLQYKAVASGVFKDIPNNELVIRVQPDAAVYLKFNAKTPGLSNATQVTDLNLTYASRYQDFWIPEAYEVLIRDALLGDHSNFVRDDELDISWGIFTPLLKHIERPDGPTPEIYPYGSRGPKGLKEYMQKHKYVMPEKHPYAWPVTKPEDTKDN
Method: Measurement of the inhibition of the glucose-6-phosphate-dehydrogenase.
The equilibrium was observed: [drawing 6]
The rate of formation of NADPH is a measure for the enzyme activity; it may be observed by means of the extinction increase at 340,334 or 366 nm per unit of time.
0.025 ml of glucose-6-phosphate-dehydrogenase (Boehringer Mannheim) were filled up to 10 ml of distilled water (solution I). 100 mgm of nicotinamide-adenine-dinucleotide-phosphate were dissolved in 13 ml of distilled water (solution II). 47.2 mgm of glucose-6-phosphate were dissolved in further 10 ml of distilled water (solution III). Simultaneously a buffer solution (solution IV) was prepared as follows:
0.28 gm of triethanolamine-hydrochloride and 1.461 gm of ethylene diaminotetraacetic acid-disodium salt were dissolved in 1 liter of distilled water and adjusted to a pH of 7.6 with sodium hydroxide solution. The substance under test was dissolved in dimethyl formamide or ethanol (solution V). Tested concentrations: 50; 25; 12.5; 6.25; 3.125; 1.56 and 0.78 μg/ml.
0.1 ml of solution I, 0.1 ml of solution II, 2.67 ml of solution IV and 0.03 ml of solution V were mixed and kept at 25° C. for 5 minutes. Then 0.1 ml of solution III was added, mixed and the alteration of extinction was determined spectrophotometrically at 366 nm for 3 minutes.
0.1 ml of solution I, 0.1 ml of solution II, 2.67 ml of solution IV and 0.03 ml of solution V were mixed and kept at 37° C. for 60 minutes. Then 0.1 ml of solution III was added, mixed and the alteration of extinction was measured spectrophotometrically at 366 nm for 3 minutes.
The inhibitory values were calculated from the average values of three measurements (alteration of extinction per minute) compared with controls, which received the pure solvent as the inhibitory solution. Then the ED50 was calculated according to Reed and Muench from the inhibitory values for the various concentrations.

[2] = Compatibility on the skin under occlusion; type: in vivo; settings: cream containing 10% of compound A; over 24 hours under occlusion
[3] = Acute toxicity, LD50 in the mouse; settings: in vivo, ip, death within 14 days
Method: The acute toxicity was determined with mice. The LD50, the dose leading to the death of 50% of the animals within 14 days, was calculated.

HeLa-cell culture = assay: Inhibition of cell cultures (HeLa); type: cell-based; settings: Homo sapiens, 72 h, 37° C., 3 days, read-out: Minimal inhibitory concentration
Method: Measurement of the inhibition of cell cultures
HeLa-cell culture was treated with trypsin and adjusted to a cell number of 150,000 cells/ml of fresh medium. The substance was always dissolved in the same quantity of dimethyl sulfoxide and then further diluted with growth medium. 0.1 ml of the substance-dilutions were added to each well of microtiter plates and then 0.2 ml of cell suspension were added (4 wells per dilution). Several growth controls containing 0.1 ml of growth medium instead of 0.1 ml of substance dilution were put up. After careful mixing, the cultures were incubated at 37° C. for 3 days in a 5% carbon dioxide atmosphere. The reading was effected in comparison with these controls. The results were given as the percentage of the deficiency and degeneration compared to the growth control. […] The data are referred to μg of substance per ml of total medium.

humans = settings: cited from earlier work
[4] = 25° C., 5 minutes before substrate, read-out: G6PDH-inhibition ED50, Immediate Inhibition (converted)
[5] = 37° C., 60 minutes before substrate, read-out: G6PDH-inhibition ED50, Inhibition of Incubation (converted)

Compound | IC50 [1, 4] [µM] | IC50 [1, 5] [µM] | compatibility on the skin [2] | LD50 at 336 h [3] [mg/kg] | minimal effective concentration (HeLa-cell culture) [µg/mL] | allergies in humans (humans)
CCc1c(O)ccc(C(=O)C(F)(F)F)c1O [C, 3-Ethyl-2,4-dihydroxy-trifluoroacetophenone] | 160 | 85.4 | – | – | – | –
O=C(c1ccc(O)cc1O)C(F)(F)F [Compound A, 2,4-Dihydroxy-trifluoroacetophenone] | > 243 | 160 | tolerated without irritation | 105 | – | –
CCc1cc(C(=O)C(F)(F)F)c(O)cc1O [Compound B, 5-Ethyl-2,4-dihydroxy-trifluoroacetophenone] | 147 | 128 | – | 88 | – | –
COc1ccc(C(=O)C(F)(F)F)c(OC)c1 [D, 2,4-Dimethoxy-trifluoroacetophenone] | > 214 | > 214 | – | – | 25 | –
CCCCCCc1ccc(O)cc1O [hexylresorcinol] | – | – | – | – | – | in some cases cause allergies in humans
